Target: TYK2 (Homo sapiens, UniProt P29597)
Test: TYK2 protein degradation in MOLT-4 cells by immunoblotting
Format: cell-based
Parameters: endogenous in cells; host or cells: MOLT-4
Conditions: MOLT-4 cells, 24 hours
Procedure, shortened: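 Percent TYK2 degradation came from densitometry of chemiluminescent immunoblots of RIPA lysates. Before lysis, MOLT-4 cells had been treated for 24 h with each compound at 0.5 or 5 μM.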

Chain of TYK2 (P29597 whole entry): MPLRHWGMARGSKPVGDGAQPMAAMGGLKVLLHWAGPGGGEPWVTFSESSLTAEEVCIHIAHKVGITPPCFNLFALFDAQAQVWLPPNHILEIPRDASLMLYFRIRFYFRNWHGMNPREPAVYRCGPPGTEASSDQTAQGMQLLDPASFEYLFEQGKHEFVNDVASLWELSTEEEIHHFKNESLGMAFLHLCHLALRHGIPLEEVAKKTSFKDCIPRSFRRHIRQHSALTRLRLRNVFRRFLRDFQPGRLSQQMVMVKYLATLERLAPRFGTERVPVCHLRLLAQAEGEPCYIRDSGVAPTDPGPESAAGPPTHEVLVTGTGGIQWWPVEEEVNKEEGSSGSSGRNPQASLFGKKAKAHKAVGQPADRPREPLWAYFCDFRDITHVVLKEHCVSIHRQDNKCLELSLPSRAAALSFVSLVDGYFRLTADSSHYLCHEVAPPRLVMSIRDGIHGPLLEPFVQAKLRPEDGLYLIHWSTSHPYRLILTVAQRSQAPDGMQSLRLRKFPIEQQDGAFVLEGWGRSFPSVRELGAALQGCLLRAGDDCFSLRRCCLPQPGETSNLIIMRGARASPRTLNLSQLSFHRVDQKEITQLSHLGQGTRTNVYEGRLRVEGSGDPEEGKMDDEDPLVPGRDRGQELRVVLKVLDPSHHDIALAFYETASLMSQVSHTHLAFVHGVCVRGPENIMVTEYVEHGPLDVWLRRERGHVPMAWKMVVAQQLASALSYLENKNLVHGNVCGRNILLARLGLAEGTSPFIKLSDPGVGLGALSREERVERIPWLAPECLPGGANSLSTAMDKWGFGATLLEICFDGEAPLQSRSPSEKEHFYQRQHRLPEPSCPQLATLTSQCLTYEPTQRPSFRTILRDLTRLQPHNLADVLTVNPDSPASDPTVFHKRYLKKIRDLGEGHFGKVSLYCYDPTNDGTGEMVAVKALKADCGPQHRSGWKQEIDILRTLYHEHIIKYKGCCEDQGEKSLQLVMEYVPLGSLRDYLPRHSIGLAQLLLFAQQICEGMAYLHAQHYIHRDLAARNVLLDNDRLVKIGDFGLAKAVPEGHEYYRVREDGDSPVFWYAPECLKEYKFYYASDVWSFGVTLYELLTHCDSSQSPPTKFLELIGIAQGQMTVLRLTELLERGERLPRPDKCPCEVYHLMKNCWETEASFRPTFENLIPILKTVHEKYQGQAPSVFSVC

`CNC(=O)c1nnc(NC(=O)CNC(=O)CCC(=O)N[C@H](C(=O)N2C[C@H](O)C[C@H]2C(=O)NCc2ccc(-c3scnc3C)cc2)C(C)(C)C)cc1Nc1cccc(-c2ncn(C)n2)c1OC` [CPD-034, N^1—((S)-1-((2S,4R)-4-Hydroxy-2-((4-(4-methylthiazol-5-yl)benzyl)carbamoyl)pyrrolidin-1-yl)-3,3-dimethyl-1-oxobutan-2-yl)-N^4-(2-((5-((2-methoxy-3-(1-methyl-1H-1,2,4-triazol-3-yl)phenyl)amino)-6-(methylcarbamoyl)pyridazin-3-yl)amino)-2-oxoethyl)succinamide] was tested, and the “TYK2 Degradation (0.5 μM)” value was at most 20% and the “TYK2 Degradation (5 μM)” value was at most 20%.

For `CNC(=O)c1nnc(NC(=O)CNC(=O)CCCC(=O)N[C@H](C(=O)N2C[C@H](O)C[C@H]2C(=O)NCc2ccc(-c3scnc3C)cc2)C(C)(C)C)cc1Nc1cccc(-c2ncn(C)n2)c1OC` [CPD-035, N^1—((S)-1-((2S,4R)-4-Hydroxy-2-((4-(4-methylthiazol-5-yl)benzyl)carbamoyl)pyrrolidin-1-yl)-3,3-dimethyl-1-oxobutan-2-yl)-N^5-(2-((5-((2-methoxy-3-(1-methyl-1H-1,2,4-triazol-3-yl)phenyl)amino)-6-(methylcarbamoyl)pyridazin-3-yl)amino)-2-oxoethyl)glutaramide], the “TYK2 Degradation (0.5 μM)” value was at most 20% and the “TYK2 Degradation (5 μM)” value was at most 20%.

With `CNC(=O)c1nnc(NC(=O)CNC(=O)CCCCC(=O)N[C@H](C(=O)N2C[C@H](O)C[C@H]2C(=O)NCc2ccc(-c3scnc3C)cc2)C(C)(C)C)cc1Nc1cccc(-c2ncn(C)n2)c1OC` [CPD-036, N^1-((S)-1-((2S,4R)-4-Hydroxy-2-((4-(4-methylthiazol-5-yl)benzyl)carbamoyl)pyrrolidin-1-yl)-3,3-dimethyl-1-oxobutan-2-yl)-N^6-(2-((5-((2-methoxy-3-(1-methyl-1H-1,2,4-triazol-3-yl)phenyl)amino)-6-(methylcarbamoyl)pyridazin-3-yl)amino)-2-oxoethyl)adipamide] the “TYK2 Degradation (0.5 μM)” value was at most 20% and the “TYK2 Degradation (5 μM)” value was 40%.

With `CNC(=O)c1nnc(NC(=O)CNC(=O)CCCCCC(=O)N[C@H](C(=O)N2C[C@H](O)C[C@H]2C(=O)NCc2ccc(-c3scnc3C)cc2)C(C)(C)C)cc1Nc1cccc(-c2ncn(C)n2)c1OC` [CPD-037, N^1—((S)-1-((2S,4R)-4-Hydroxy-2-((4-(4-methylthiazol-5-yl)benzyl)carbamoyl)pyrrolidin-1-yl)-3,3-dimethyl-1-oxobutan-2-yl)-N^7-(2-((5-((2-methoxy-3-(1-methyl-1H-1,2,4-triazol-3-yl)phenyl)amino)-6-(methylcarbamoyl)pyridazin-3-yl)amino)-2-oxoethyl)heptanediamide] the “TYK2 Degradation (0.5 μM)” value was at most 20% and the “TYK2 Degradation (5 μM)” value was 30%.

In the case of `CNC(=O)c1nnc(NC(=O)CNC(=O)CCCCCCCCCC(=O)N[C@H](C(=O)N2C[C@H](O)C[C@H]2C(=O)NCc2ccc(-c3scnc3C)cc2)C(C)(C)C)cc1Nc1cccc(-c2ncn(C)n2)c1OC` [CPD-041, N^1—((S)-1-((2S,4R)-4-Hydroxy-2-((4-(4-methylthiazol-5-yl)benzyl)carbamoyl)pyrrolidin-1-yl)-3,3-dimethyl-1-oxobutan-2-yl)-N^11-(2-((5-((2-methoxy-3-(1-methyl-1H-1,2,4-triazol-3-yl)phenyl)amino)-6-(methylcarbamoyl)pyridazin-3-yl)amino)-2-oxoethyl)undecanediamide], the “TYK2 Degradation (0.5 μM)” value is reported as 50% and the “TYK2 Degradation (5 μM)” value is reported as 30%.

With `CNC(=O)c1nnc(NC(=O)CNC(=O)CNc2cccc3c2C(=O)N(C2CCC(=O)NC2=O)C3=O)cc1Nc1cccc(-c2ncn(C)n2)c1OC` (centres unmarked) [CPD-042, 6-(2-(2-((2-(2,6-Dioxopiperidin-3-yl)-1,3-dioxoisoindolin-4-yl)amino)acetamido)acetamido)-4-((2-methoxy-3-(1-methyl-1H-1,2,4-triazol-3-yl)phenyl)amino)-N-methylpyridazine-3-carboxamide] the “TYK2 Degradation (0.5 μM)” value was at most 20% and the “TYK2 Degradation (5 μM)” value was at most 20%.

`CNC(=O)c1nnc(NC(=O)CNC(=O)CCNc2cccc3c2C(=O)N(C2CCC(=O)NC2=O)C3=O)cc1Nc1cccc(-c2ncn(C)n2)c1OC` (centres unmarked) [CPD-043, 6-(2-(3-((2-(2,6-Dioxopiperidin-3-yl)-1,3-dioxoisoindolin-4-yl)amino)propanamido)acetamido)-4-((2-methoxy-3-(1-methyl-1H-1,2,4-triazol-3-yl)phenyl)amino)-N-methylpyridazine-3-carboxamide] was tested, and the “TYK2 Degradation (0.5 μM)” value was at most 20% and the “TYK2 Degradation (5 μM)” value was at most 20%.

In the case of `CNC(=O)c1nnc(NC(=O)CNC(=O)CCCNc2cccc3c2C(=O)N(C2CCC(=O)NC2=O)C3=O)cc1Nc1cccc(-c2ncn(C)n2)c1OC` (centres unmarked) [CPD-044, 6-(2-(4-((2-(2,6-Dioxopiperidin-3-yl)-1,3-dioxoisoindolin-4-yl)amino)butanamido)acetamido)-4-((2-methoxy-3-(1-methyl-1H-1,2,4-triazol-3-yl)phenyl)amino)-N-methylpyridazine-3-carboxamide], the “TYK2 Degradation (0.5 μM)” value is reported as at most 20% and the “TYK2 Degradation (5 μM)” value is reported as at most 20%.

`CNC(=O)c1nnc(NC(=O)CNC(=O)CCCCNc2cccc3c2C(=O)N(C2CCC(=O)NC2=O)C3=O)cc1Nc1cccc(-c2ncn(C)n2)c1OC` (centres unmarked) [CPD-045, 6-(2-(5-((2-(2,6-Dioxopiperidin-3-yl)-1,3-dioxoisoindolin-4-yl)amino)pentanamido)acetamido)-4-((2-methoxy-3-(1-methyl-1H-1,2,4-triazol-3-yl)phenyl)amino)-N-methylpyridazine-3-carboxamide] was tested, and the “TYK2 Degradation (0.5 μM)” value was 40% and the “TYK2 Degradation (5 μM)” value was at most 20%.

In the case of `CNC(=O)c1nnc(NC(=O)CNC(=O)CCCCCNc2cccc3c2C(=O)N(C2CCC(=O)NC2=O)C3=O)cc1Nc1cccc(-c2ncn(C)n2)c1OC` (centres unmarked) [CPD-046, 6-(2-(6-((2-(2,6-Dioxopiperidin-3-yl)-1,3-dioxoisoindolin-4-yl)amino)hexanamido)acetamido)-4-((2-methoxy-3-(1-methyl-1H-1,2,4-triazol-3-yl)phenyl)amino)-N-methylpyridazine-3-carboxamide], the “TYK2 Degradation (0.5 μM)” value is reported as at most 20% and the “TYK2 Degradation (5 μM)” value is reported as at most 20%.

`CNC(=O)c1nnc(NC(=O)CNC(=O)CCCCCCNc2cccc3c2C(=O)N(C2CCC(=O)NC2=O)C3=O)cc1Nc1cccc(-c2ncn(C)n2)c1OC` (centres unmarked) [CPD-047, 6-(2-(7-((2-(2,6-dioxopiperidin-3-yl)-1,3-dioxoisoindolin-4-yl)amino)heptanamido)acetamido)-4-((2-methoxy-3-(1-methyl-H-1,2,4-triazol-3-yl)phenyl)amino)-N-methylpyridazine-3-carboxamide] was tested, and the “TYK2 Degradation (0.5 μM)” value was 60% and the “TYK2 Degradation (5 μM)” value was at most 20%.

In the case of `CNC(=O)c1nnc(NC(=O)CNC(=O)CCCCCCCNc2cccc3c2C(=O)N(C2CCC(=O)NC2=O)C3=O)cc1Nc1cccc(-c2ncn(C)n2)c1OC` (centres unmarked) [CPD-048, 6-(2-(8-((2-(2,6-Dioxopiperidin-3-yl)-1,3-dioxoisoindolin-4-yl)amino)octanamido)acetamido)-4-((2-methoxy-3-(1-methyl-1H-1,2,4-triazol-3-yl)phenyl)amino)-N-methylpyridazine-3-carboxamide], the “TYK2 Degradation (0.5 μM)” value is reported as 50% and the “TYK2 Degradation (5 μM)” value is reported as at most 20%.

For `CNC(=O)c1nnc(NC(=O)CNC(=O)CCOCCNc2cccc3c2C(=O)N(C2CCC(=O)NC2=O)C3=O)cc1Nc1cccc(-c2ncn(C)n2)c1OC` (centres unmarked) [CPD-049, 6-(2-(3-(2-((2-(2,6-Dioxopiperidin-3-yl)-1,3-dioxoisoindolin-4-yl)amino)ethoxy)propanamido)acetamido)-4-((2-methoxy-3-(1-methyl-1H-1,2,4-triazol-3-yl)phenyl)amino)-N-methylpyridazine-3-carboxamide], the “TYK2 Degradation (0.5 μM)” value was at most 20% and the “TYK2 Degradation (5 μM)” value was at most 20%.

With `CNC(=O)c1nnc(NC(=O)CNC(=O)CCOCCOCCNc2cccc3c2C(=O)N(C2CCC(=O)NC2=O)C3=O)cc1Nc1cccc(-c2ncn(C)n2)c1OC` (centres unmarked) [CPD-050, 6-(2-(3-(2-(2-((2-(2,6-Dioxopiperidin-3-yl)-1,3-dioxoisoindolin-4-yl)amino)ethoxy)ethoxy)propanamido)acetamido)-4-((2-methoxy-3-(1-methyl-1H-1,2,4-triazol-3-yl)phenyl)amino)-N-methylpyridazine-3-carboxamide] the “TYK2 Degradation (0.5 μM)” value was at most 20% and the “TYK2 Degradation (5 μM)” value was at most 20%.

With `CNC(=O)c1nnc(NC(=O)CNC(=O)CCOCCOCCOCCNc2cccc3c2C(=O)N(C2CCC(=O)NC2=O)C3=O)cc1Nc1cccc(-c2ncn(C)n2)c1OC` (centres unmarked) [CPD-051, 6-(1-((2-(2,6-Dioxopiperidin-3-yl)-1,3-dioxoisoindolin-4-yl)amino)-12-oxo-3,6,9-trioxa-13-azapentadecan-15-amido)-4-((2-methoxy-3-(1-methyl-1H-1,2,4-triazol-3-yl)phenyl)amino)-N-methylpyridazine-3-carboxamide] the “TYK2 Degradation (0.5 μM)” value was at most 20% and the “TYK2 Degradation (5 μM)” value was at most 20%.

For `CNC(=O)c1nnc(NC(=O)CNC(=O)CCOCCOCCOCCOCCNc2cccc3c2C(=O)N(C2CCC(=O)NC2=O)C3=O)cc1Nc1cccc(-c2ncn(C)n2)c1OC` (centres unmarked) [CPD-052, 6-(1-((2-(2,6-Dioxopiperidin-3-yl)-1,3-dioxoisoindolin-4-yl)amino)-15-oxo-3,6,9,12-tetraoxa-16-azaoctadecan-18-amido)-4-((2-methoxy-3-(1-methyl-1H-1,2,4-triazol-3-yl)phenyl)amino)-N-methylpyridazine-3-carboxamide], the “TYK2 Degradation (0.5 μM)” value was at most 20% and the “TYK2 Degradation (5 μM)” value was at most 20%.

Source: US20240059671A1, “TYROSINE KINASE 2 (TYK2) DEGRADATION COMPOUNDS AND METHODS OF USE” (CULLGEN (SHANGHAI), INC., priority 2020, published 2024)
